Measurements as given in patent publication US7049490B2, “Gibberellin 3β-hydroxylase genes of rice and uses thereof” (priority 1999, dated 2006).
“Also recorded” adds a separate entry of the source.

Experiments:
Os3β-1 fusion protein = target: T1, Os3β-1 fusion protein (Oryza sativa subsp. japonica, UniProt Q6AT12, A27T/D23H/DEL15-17/DUP228-228); assay: Enzymatic activity assay of recombinant Os3β-1 fusion protein with gibberellin substrates, products identified by GC-MS; format: biochemical, rice (Oryza sativa); settings: E. coli supernatant with Os3β-1 fusion protein, cofactors ascorbate, ferrous iron, 2-ketoglutarate
T1 construct: a full-length cDNA is synthesized by RT-PCR using primers provided with restriction enzyme sites and subcloned into multi-cloning sites of the pMAL-c2 expression vector; made in house; host or cells: E. coli JM109
T1 sequence (Q6AT12 other isoform, or with tags, fused parts or gaps DEL15-17/D23H/A27T/DUP228-228): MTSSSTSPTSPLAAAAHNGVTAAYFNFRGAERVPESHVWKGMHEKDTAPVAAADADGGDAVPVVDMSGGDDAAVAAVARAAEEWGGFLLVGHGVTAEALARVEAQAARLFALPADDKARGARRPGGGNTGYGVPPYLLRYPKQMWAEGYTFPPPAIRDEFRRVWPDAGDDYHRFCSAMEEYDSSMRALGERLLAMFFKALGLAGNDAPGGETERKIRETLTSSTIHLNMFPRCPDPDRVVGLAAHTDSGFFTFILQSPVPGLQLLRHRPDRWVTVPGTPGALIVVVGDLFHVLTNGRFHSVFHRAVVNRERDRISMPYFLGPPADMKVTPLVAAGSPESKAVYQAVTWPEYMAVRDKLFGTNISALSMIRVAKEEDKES
Procedure: (§1) cDNAs for the predicted protein-coding regions of the Os3β-1 and Os3β-2 genes were each inserted into the pMAL-c2 expression vector (New England Biolabs, Beverly, Mass.) in the sense orientation to obtain a fusion translation product. The constructs thus obtained, pMAL-Os3β-1 and pMAL-Os3β-2, were expressed in E. coli strain JM109. Bacterial cells were cultured by shaking in 2×YT medium containing 100 mg/L ampicillin at 37° C. overnight. Then, the culture was diluted 100-fold with a fresh 2×YT medium containing 100 mg/L ampicillin, and further cultured with shaking at 30° C. Four hours later, IPTG was added to the culture to a final concentration of 1 mM, and the mixture was incubated with shaking at 17° C. for further 18 h. After the completion of culturing, the bacterial cells were collected, washed with a washing buffer (containing 50 mM Tris-HCl (pH 8.0), 10% (w/v) glycerol, and 2 mM DTT), suspended in the washing buffer containing lysozyme (1 mg/ml), and allowed to stand for 30 min on ice.
(§2) The cell lysate thus obtained was sonicated, centrifuged, and the supernatant was subjected to SDS-PAGE to confirm the expression of the fusion protein. For the assay of enzymatic activity of the Os3β-1 fusion protein, the supernatant was incubated with various gibberellins and cofactors (ascorbate, ferrous iron, and 2-ketoglutarate). For the activity assay of the Os3β-2 fusion protein, the supernatant was purified on a column of amylose resin according to the method described in the manual, and the purified protein thus obtained was similarly incubated as described above. Metabolized gibberellins were identified using GC-MS.

Os3β-2 fusion protein = target: T2, Os3β-2 fusion protein (Oryza sativa subsp. japonica, UniProt Q9FU53, G53R); assay: Enzymatic activity assay of purified recombinant Os3β-2 fusion protein with gibberellin substrates, products identified by GC-MS; format: biochemical, rice (Oryza sativa); settings: amylose-resin purified Os3β-2 fusion protein, cofactors ascorbate, ferrous iron, 2-ketoglutarate
T2 construct: a full-length cDNA is synthesized by RT-PCR using primers provided with restriction enzyme sites and subcloned into multi-cloning sites of the pMAL-c2 expression vector; made in house; host or cells: E. coli JM109
T2 sequence (Q9FU53 whole entry G53R, the tested form may be a part): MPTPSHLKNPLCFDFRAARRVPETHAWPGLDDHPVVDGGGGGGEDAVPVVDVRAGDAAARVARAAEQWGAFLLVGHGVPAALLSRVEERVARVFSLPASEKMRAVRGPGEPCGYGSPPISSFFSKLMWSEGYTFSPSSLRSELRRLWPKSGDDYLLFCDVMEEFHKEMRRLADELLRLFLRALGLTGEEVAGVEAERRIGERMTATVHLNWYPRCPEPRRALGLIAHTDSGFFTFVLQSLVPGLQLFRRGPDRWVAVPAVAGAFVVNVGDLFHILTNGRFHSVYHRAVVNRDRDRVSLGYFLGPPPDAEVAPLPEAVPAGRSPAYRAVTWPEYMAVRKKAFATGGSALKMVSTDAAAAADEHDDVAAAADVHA
Procedure: as §1, §2

| Structure (SMILES) | Metabolized gibberellins (reaction products) from the substrate (Os3β-1 fusion protein) | Metabolized gibberellins (reaction products) from the substrate (Os3β-2 fusion protein) |
| --- | --- | --- |
| C=C1C[C@]23C[C@@]1(O)CC[C@H]2[C@@]12CC=C[C@@](C)(C(=O)O1)[C@H]2[C@@H]3C(=O)O [GA5] | only the corresponding 3β-hydroxylated gibberellins (GA3 and GA88) were obtained; also recorded: produced the corresponding 3β-hydroxylated gibberellins, GA3 and GA88, respectively | produced the corresponding 3β-hydroxylated gibberellins (GA3, GA4, GA1, and GA38); also recorded: production of the corresponding 3β-hydroxylated gibberellins, GA3, GA4, GA1, and GA38, respectively |
| C=C1C[C@]23C[C@H]1CC[C@H]2[C@@]12CCC[C@@](C)(C(=O)O1)[C@H]2[C@@H]3C(=O)O [GA9] | synthesis of GA4 (3β-hydroxylation), GA7 (2,3-unsaturation and 3β-hydroxylation), and GA34 (2β-hydroxylation) were confirmed; also recorded: catalyzed the production of GA4 (3β-hydroxylation), GA7 (2,3-unsaturation and 3β-hydroxylation), and GA34 (2β-hydroxylation) | produced the corresponding 3β-hydroxylated gibberellins (GA3, GA4, GA1, and GA38); also recorded: production of the corresponding 3β-hydroxylated gibberellins, GA3, GA4, GA1, and GA38, respectively |
| C=C1C[C@]23C[C@@]1(O)CC[C@H]2[C@@]12CCC[C@@](C)(C(=O)O1)[C@H]2[C@@H]3C(=O)O [GA20] | – | produced the corresponding 3β-hydroxylated gibberellins (GA3, GA4, GA1, and GA38); also recorded: production of the corresponding 3β-hydroxylated gibberellins, GA3, GA4, GA1, and GA38, respectively |
| C=C1C[C@]23C[C@@]1(O)CC[C@H]2[C@@]12CCC[C@@](C)(C(=O)OC1)[C@H]2[C@@H]3C(=O)O [GA44] | only the corresponding 3β-hydroxylated gibberellins (GA3 and GA88) were obtained; also recorded: produced the corresponding 3β-hydroxylated gibberellins, GA3 and GA88, respectively | produced the corresponding 3β-hydroxylated gibberellins (GA3, GA4, GA1, and GA38); also recorded: production of the corresponding 3β-hydroxylated gibberellins, GA3, GA4, GA1, and GA38, respectively |
